Patent publication US20230072421A1, “TARGETED RADIOPHARMACEUTICALS FOR THE DIAGNOSIS AND TREATMENT OF PROSTATE CANCER” (Bayer AS, priority 2019, published 2023)

Assay: Biodistribution study in LNCaP tumor-bearing mice (Th227 counted in organs)
Assay type: in vivo, SCID mice
Outline: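 Th227 in excised, weighed organs was counted with a Germanium detector at predetermined time points (n=3 mice each). This followed one i.v. injection of radiolabelled compound into testosterone-supplemented SCID mice carrying LNCaP xenografts in Matrigel, dosed once tumors reached ~50 mm^2.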

O=C([O-])CN1CCN(CC(=O)[O-])CCN(CC(=O)NCC2CCC(C(=O)NC(Cc3ccc4ccccc4c3)C(=O)NCCCCC(NC(=O)NC(CCC(=O)O)C(=O)O)C(=O)O)CC2)CCN(CC(=O)[O-])CC1.[227Th+4] [Example 1-B-227Th, [^227Th]Thorium (3S,10S,14S)-3-[(naphthalen-2-yl)methyl]-1,4,12-trioxo-1-{(1r,4S)-4-[(2-{4,7,10-tris[(carboxy-kappaO)methyl]-1,4,7,10-tetraazacyclododecan-1-yl-kappa^4N^1,N^4,N^7,N^10}acetamido)methyl]cyclohexyl}-2,5,11,13-tetraazahexadecane-10,14,16-tricarboxylate]
Th-227 in Spleen (6 hr, 500 kBq/kg, study b2999): 0.73 % ID Th-227/g organ
Th-227 in Tumor (6 hr, 500 kBq/kg, study b2999): 9.80 % ID Th-227/g organ
Th-227 in prostate (6 hr, 500 kBq/kg, study b2999): 6.41 % ID Th-227/g organ
Th-227 in Blood (24 h, 500 kBq/kg, study b2999): 0.01 % ID Th-227/g organ
Th-227 in Femur and tibia (24 h, 500 kBq/kg, study b2999): 0.23 % ID Th-227/g organ
Th-227 in Kidneys (24 h, 500 kBq/kg, study b2999): 26.81 % ID Th-227/g organ
Th-227 in Liver (24 h, 500 kBq/kg, study b2999): 0.18 % ID Th-227/g organ
Th-227 in Salivary gland (24 h, 500 kBq/kg, study b2999): 1.24 % ID Th-227/g organ
Th-227 in Spleen (24 h, 500 kBq/kg, study b2999): 0.33 % ID Th-227/g organ
Th-227 in Tumor (24 h, 500 kBq/kg, study b2999): 14.45 % ID Th-227/g organ
Th-227 in prostate (24 h, 500 kBq/kg, study b2999): 0.00 % ID Th-227/g organ
Th-227 in Blood (24 h, 1500 kBq/kg): 0.02% ID Th-227/g organ
Th-227 in Liver (24 h, 1500 kBq/kg): 1.05% ID Th-227/g organ
Th-227 in Spleen (24 h, 1500 kBq/kg): 1.24% ID Th-227/g organ
Th-227 in Tumor (24 h, 1500 kBq/kg): 9.81% ID Th-227/g organ
Th-227 in bone (24 h, 1500 kBq/kg): 9.38% ID Th-227/g organ
Th-227 in brain (24 h, 1500 kBq/kg): 0.00% ID Th-227/g organ
Th-227 in kidney (24 h, 1500 kBq/kg): 11.30% ID Th-227/g organ
Th-227 in large intestine (24 h, 1500 kBq/kg): 0.12% ID Th-227/g organ
Th-227 in lung (24 h, 1500 kBq/kg): 0.50% ID Th-227/g organ
Th-227 in muscle (24 h, 1500 kBq/kg): 0.16% ID Th-227/g organ
Th-227 in prostate (24 h, 1500 kBq/kg): 0.00% ID Th-227/g organ
Th-227 in salivary glands (24 h, 1500 kBq/kg): 0.32% ID Th-227/g organ
Th-227 in small intestine (24 h, 1500 kBq/kg): 0.23% ID Th-227/g organ
Th-227 in Blood (72 h, 500 kBq/kg, study b2999): 0.00 % ID Th-227/g organ
Th-227 in Femur and tibia (72 h, 500 kBq/kg, study b2999): 0.33 % ID Th-227/g organ
Th-227 in Kidneys (72 h, 500 kBq/kg, study b2999): 19.30 % ID Th-227/g organ
Th-227 in Liver (72 h, 500 kBq/kg, study b2999): 0.26 % ID Th-227/g organ
Th-227 in Salivary gland (72 h, 500 kBq/kg, study b2999): 0.73 % ID Th-227/g organ
Th-227 in Spleen (72 h, 500 kBq/kg, study b2999): 0.92 % ID Th-227/g organ
Th-227 in Tumor (72 h, 500 kBq/kg, study b2999): 21.94 % ID Th-227/g organ
Th-227 in prostate (72 h, 500 kBq/kg, study b2999): 0.00 % ID Th-227/g organ
Th-227 in Blood (96 h, 1500 kBq/kg): 0.00% ID Th-227/g organ
Th-227 in Liver (96 h, 1500 kBq/kg): 1.56% ID Th-227/g organ
Th-227 in Spleen (96 h, 1500 kBq/kg): 2.79% ID Th-227/g organ
Th-227 in Tumor (96 h, 1500 kBq/kg): 10.02% ID Th-227/g organ
Th-227 in bone (96 h, 1500 kBq/kg): 10.31% ID Th-227/g organ
Th-227 in brain (96 h, 1500 kBq/kg): 0.00% ID Th-227/g organ
Th-227 in kidney (96 h, 1500 kBq/kg): 1.96% ID Th-227/g organ
Th-227 in large intestine (96 h, 1500 kBq/kg): 0.12% ID Th-227/g organ
Th-227 in lung (96 h, 1500 kBq/kg): 0.55% ID Th-227/g organ
Th-227 in muscle (96 h, 1500 kBq/kg): 0.08% ID Th-227/g organ
Th-227 in prostate (96 h, 1500 kBq/kg): 0.00% ID Th-227/g organ
Th-227 in salivary glands (96 h, 1500 kBq/kg): 0.42% ID Th-227/g organ
Th-227 in small intestine (96 h, 1500 kBq/kg): 0.21% ID Th-227/g organ
Th-227 in Blood (168 h, 500 kBq/kg, study b2999): 0.00 % ID Th-227/g organ
Th-227 in Femur and tibia (168 h, 500 kBq/kg, study b2999): 0.18 % ID Th-227/g organ
Th-227 in Kidneys (168 h, 500 kBq/kg, study b2999): 3.56 % ID Th-227/g organ
Th-227 in Liver (168 h, 500 kBq/kg, study b2999): 0.21 % ID Th-227/g organ
Th-227 in Salivary gland (168 h, 500 kBq/kg, study b2999): 0.00 % ID Th-227/g organ
Th-227 in Spleen (168 h, 500 kBq/kg, study b2999): 0.31 % ID Th-227/g organ
Th-227 in Tumor (168 h, 500 kBq/kg, study b2999): 9.80 % ID Th-227/g organ
Th-227 in prostate (168 h, 500 kBq/kg, study b2999): 0.00 % ID Th-227/g organ
Th-227 in Blood (336 h, 500 kBq/kg, study b2999): 0.00 % ID Th-227/g organ
Th-227 in Femur and tibia (336 h, 500 kBq/kg, study b2999): 0.25 % ID Th-227/g organ
Th-227 in Kidneys (336 h, 500 kBq/kg, study b2999): 0.78 % ID Th-227/g organ
Th-227 in Liver (336 h, 500 kBq/kg, study b2999): 0.17 % ID Th-227/g organ
Th-227 in Salivary gland (336 h, 500 kBq/kg, study b2999): 0.00 % ID Th-227/g organ
Th-227 in Spleen (336 h, 500 kBq/kg, study b2999): 0.15 % ID Th-227/g organ
Th-227 in Tumor (336 h, 500 kBq/kg, study b2999): 7.78 % ID Th-227/g organ
Th-227 in prostate (336 h, 500 kBq/kg, study b2999): 0.00 % ID Th-227/g organ
